Values of other authors, collected in article PMC7395068, “The evolution of strategies to minimise the risk of human drug-induced liver injury (DILI) in drug discovery and development” (Archives of Toxicology, 2020).
Like-named read-outs stand apart in the source and are kept apart here.

Columns and labels:
human hepatocytes = conditions: In vitro Assay; ref Xu 2008; cited from earlier work
PHH spheroids = conditions: In vitro Assay; ref Vorrink 2018; cited from earlier work
[1] = cited from earlier work
HepG2 cells [2] = conditions: cited from earlier work
PHH = conditions: cited from earlier work
HepG2 cells [3] = conditions: In vitro Assay; ref Persson 2013; cited from earlier work
hLiMTs = conditions: cited from earlier work
rBsep = conditions: cited from earlier work
[4] = tested on: primary human hepatocytes, NIH3T3 fibroblasts, BSEP, CYP3A4; conditions: In vitro Assay; ref Schadt 2015; cited from earlier work
[5] = tested on: THLE or HepG2 cells, isolated mitochondria, BSEP; conditions: In vitro Assay; ref Aleo 2019; cited from earlier work
[6] = ref Chen 2016; cited from earlier work
[7] = tested on: isolated mouse liver mitochondria; conditions: In vitro Assay; ref Porceddu 2012; cited from earlier work
[8] = In vitro Assay, ref O'Brien 2006
[9] = In vitro Assay, ref Proctor 2017
[10] = In vitro Assay, ref Dawson 2012

## N[C@@H](Cc1ccc(O)c(O)c1)C(=O)O [levodopa]
Human hepatocytes
  Structural based (HCI): -VE
PHH spheroids
  hLiMTs ATP <20 x Cmax: -VE

## NCCCC[C@H](N[C@@H](CCc1ccccc1)C(=O)O)C(=O)N1CCC[C@H]1C(=O)O [lisinopril]
Human hepatocytes
  Structural based (HCI): -VE
PHH spheroids
  hLiMTs ATP <20 x Cmax: +VE (IC20 < 20 × Cmax.tot cut-off)

## Clc1ccc(COC(Cn2ccnc2)c2ccc(Cl)cc2Cl)c(Cl)c1 (stereo not drawn) [miconazole]
Human hepatocytes
  Structural based (HCI): -VE
PHH spheroids
  hLiMTs ATP <20 x Cmax: -VE

## CCc1c(C)[nH]c2c1C(=O)C(CN1CCOCC1)CC2 (stereo not drawn) [molindone]
[1]; ref Vorrink 2018
  In vivo DILI: +VE
[1]; ref Xu 2008
  In vivo DILI: +VE
Human hepatocytes
  Structural based (HCI): -VE
PHH spheroids
  hLiMTs ATP <20 x Cmax: -VE

## COc1ccc2cc([C@H](C)C(=O)O)ccc2c1 [naproxen]
HepG2 cells [2]; [8]
  Structural based (HCI): -VE
PHH; [9]
  PHH ATP <100uM: -VE
HepG2 cells [3]
  Cluser analysis: -VE
  Structural based (HCI): -VE
hLiMTs; [9]
  hLiMTs ATP <100uM: -VE

## COC(=O)C1=C(C)NC(C)=C(C(=O)OC)C1c1ccccc1[N+](=O)[O-] [nifedipine]
rBsep
  Inhibition of rBsep cutoff<3: +VE

## COCCOC(=O)C1=C(C)NC(C)=C(C(=O)OC(C)C)C1c1cccc([N+](=O)[O-])c1 (stereo not drawn) [nimodipine]
Human hepatocytes
  Structural based (HCI): +VE
PHH spheroids
  hLiMTs ATP <20 x Cmax: +VE (IC20 < 20 × Cmax.tot cut-off)

## CC(C)(C)NC[C@H](O)COc1ccccc1C1CCCC1 [penbutolol]
[1]; ref Aleo 2019
  In vivo DILI: -VE
[1]; ref Proctor 2017
  In vivo DILI: -VE
[1]; ref Schadt 2015
  In vivo DILI: -VE
[4]
  Cellular toxicity (3T3 cells): -VE
  Combined Assay: -VE
  GSH adduct HML: -VE
  Hepatocyte cellular toxicity: -VE
  MitoTox 3T3: -VE
  TDI CYP3A4: -VE
  hBSEP inhibition: -VE
[5]
  Partition Hybrid HRM Score: -VE
  Ro2 Hybrid HRM Score: -VE
PHH; [9]
  PHH ATP <100uM: +VE (IC50 threshold of 100 µM)
[6]
  DILI +VE (5-8), DILI -VE (-4): -VE
  DILI severity category: vNo-DILI-Concern
hLiMTs; [9]
  hLiMTs ATP <100uM: +VE (IC50 threshold of 100 µM)

## [H]/N=C(/N)N/C(=N/[H])NCCc1ccccc1 [phenformin]
[1]; ref O'Brien 2006
  In vivo DILI: -VE
[1]; ref Proctor 2017
  In vivo DILI: +VE
HepG2 cells [2]; [8]
  Structural based (HCI): +VE (lowest HCI endpoint IC50 (or in the absence of dose–response < 100 µM) < 30 × total human plasma exposure levels (Cmax.tot))
PHH; [9]
  PHH ATP <100uM: +VE (IC50 threshold of 100 µM)
hLiMTs; [9]
  hLiMTs ATP <100uM: +VE (IC50 threshold of 100 µM)

## CC(C)NCC(O)COc1cccc2[nH]ccc12 (stereo not drawn) [pindolol]
[1]; ref Vorrink 2018
  In vivo DILI: -VE
[1]; ref Xu 2008
  In vivo DILI: -VE
[6]
  DILI +VE (5-8), DILI -VE (-4): -VE
  DILI severity category: vNo-DILI-Concern
PHH spheroids
  hLiMTs ATP <20 x Cmax: -VE

## O=C(C1CCCCC1)N1CC(=O)N2CCc3ccccc3C2C1 (stereo not drawn) [praziquantel]
rBsep; [10]
  Inhibition of rBsep cutoff<1& cmax u>.2: -VE
  Inhibition of rBsep cutoff<3: +VE
HepG2 cells [2]; [8]
  Structural based (HCI): +VE

## CCN(CC)CCCC(C)Nc1c2ccc(Cl)cc2nc2ccc(OC)cc12 (stereo not drawn) [quinacrine]
[1]; in vivo
  In vivo DILI: +VE
HepG2 cells [2]
  Structural based (HCI): +VE (key: +VE: lowest HCI endpoint IC50 (or in the absence of dose–response < 100 µM) < 30 × total human plasma exposure levels (Cmax.tot))
PHH
  PHH ATP <100uM: +VE (key: +VE: IC50 threshold of 100 µM)
hLiMTs
  hLiMTs ATP <100uM: +VE (key: +VE: IC50 threshold of 100 µM)

## CC(C)c1nc(N(C)S(C)(=O)=O)nc(-c2ccc(F)cc2)c1/C=C/[C@@H](O)C[C@@H](O)CC(=O)O [rosuvastatin]
[1]; ref O'Brien 2006
  In vivo DILI: +VE
[1]; ref Proctor 2017
  In vivo DILI: +VE
HepG2 cells [2]; [8]
  Structural based (HCI): +VE (lowest HCI endpoint IC50 (or in the absence of dose–response < 100 µM) < 30 × total human plasma exposure levels (Cmax.tot))
PHH; [9]
  PHH ATP <100uM: +VE (IC50 threshold of 100 µM)
[6]
  DILI +VE (5-8), DILI -VE (-4): +VE
  DILI severity category: vLess-DILI-Concern
hLiMTs; [9]
  hLiMTs ATP <100uM: +VE (IC50 threshold of 100 µM)

## CN[C@@H]1[C@H](O)[C@H](NC)[C@H]2O[C@@]3(O)C(=O)C[C@@H](C)O[C@H]3O[C@@H]2[C@H]1O [spectinomycin]
[1]; ref Porceddu 2012
  In vivo DILI: +VE
[1]; ref Proctor 2017
  In vivo DILI: +VE
PHH; [9]
  PHH ATP <100uM: -VE
[7]
  in vitro data EC2<=1x Cmax: +VE
  in vitro data EC20<=2uM: +VE
[6]
  DILI +VE (5-8), DILI -VE (-4): -VE
  DILI severity category: Ambiguous DILI-concern
hLiMTs; [9]
  hLiMTs ATP <100uM: -VE

## O=C(O)c1cc(/N=N/c2ccc(S(=O)(=O)Nc3ccccn3)cc2)ccc1O [sulfasalazine]
Human hepatocytes
  Structural based (HCI): +VE
PHH spheroids
  hLiMTs ATP <20 x Cmax: +VE (IC20 < 20 × Cmax.tot cut-off)

## CC(C)(C)c1ccc(C(O)CCCN2CCC(C(O)(c3ccccc3)c3ccccc3)CC2)cc1 (stereo not drawn) [terfenadine]
PHH spheroids
  hLiMTs ATP <20 x Cmax: -VE
